The text below walks through data of US10131653B2, “Heterocyclic compound” (TAKEDA PHARMACEUTICAL COMPANY LIMITED, priority 2015, dated 2018).

Molecules are shown by their SMILES. Read-outs that look alike come from different tables or passages of the source.

One assay deals with T1, human OX1 receptor (Homo sapiens, UniProt O43613).
T1 construct: expressed in transfected cells; host or cells: CHO cells
T1 sequence (O43613 1-425): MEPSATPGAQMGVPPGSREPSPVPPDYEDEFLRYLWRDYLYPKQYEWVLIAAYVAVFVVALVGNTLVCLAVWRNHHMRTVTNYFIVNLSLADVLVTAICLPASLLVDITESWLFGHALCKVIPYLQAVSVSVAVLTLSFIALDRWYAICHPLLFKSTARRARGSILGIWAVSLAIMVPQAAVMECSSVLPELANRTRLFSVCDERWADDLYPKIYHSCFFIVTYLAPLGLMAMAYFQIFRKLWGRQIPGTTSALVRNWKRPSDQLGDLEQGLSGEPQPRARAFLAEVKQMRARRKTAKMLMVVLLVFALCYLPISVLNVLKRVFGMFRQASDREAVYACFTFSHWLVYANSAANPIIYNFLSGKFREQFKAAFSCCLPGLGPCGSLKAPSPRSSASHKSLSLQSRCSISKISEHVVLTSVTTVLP
Description: Measurement of orexin receptor antagonistic activity (calcium fluorescence, FLIPRtetra). The assay is classed as cell-based. As to conditions: for inhibition at 10 µM: CHO, read-out: Human Orexin1 receptor inhibition (at 10 μM). The procedure, abridged: (§1)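 Calcium fluorescence measured by FLIPRtetra every second for 2 min after orexin-A challenge, 1 nM final for OX1 and 0.3 nM final for OX2. Receptor-expressing CHO cells received compound in HEPES-buffered HBSS with 0.1% BSA just before agonist.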

For a further assay, the target named is T2, human OX2 receptor (Homo sapiens, UniProt O43614).
T2 construct: expressed in transfected cells; host or cells: CHO cells
T2 sequence (O43614 1-444): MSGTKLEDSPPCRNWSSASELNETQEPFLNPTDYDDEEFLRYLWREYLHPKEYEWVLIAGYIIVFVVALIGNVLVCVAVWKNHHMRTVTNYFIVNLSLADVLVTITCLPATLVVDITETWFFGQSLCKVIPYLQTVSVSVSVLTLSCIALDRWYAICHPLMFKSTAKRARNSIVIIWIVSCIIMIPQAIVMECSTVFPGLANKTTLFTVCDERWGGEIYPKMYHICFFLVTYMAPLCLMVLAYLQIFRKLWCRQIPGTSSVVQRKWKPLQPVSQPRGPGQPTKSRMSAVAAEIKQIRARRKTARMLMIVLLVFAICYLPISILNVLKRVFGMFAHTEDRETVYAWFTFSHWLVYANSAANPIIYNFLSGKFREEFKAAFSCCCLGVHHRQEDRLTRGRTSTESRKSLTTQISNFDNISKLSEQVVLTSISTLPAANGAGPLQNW
The description is as above. The assay is classed as cell-based. The conditions noted are these: for inhibition at 10 µM: CHO, read-out: Human Orexin2 receptor inhibition (at 10 μM). The procedure, abridged:
as §1

Setting [1] is: 10 μM test compound, CHO cells expressing human OX1 receptor, OX-A 1 nM.
Setting [2] is: 10 μM test compound, CHO cells expressing human OX2 receptor, OX-A 0.3 nM.

In the case of `Cc1cc(C#N)nc(N2CCN(C(=O)c3ccccc3-n3nccn3)[C@H](C)CO2)n1` [Example 152, 6-methyl-2-((6R)-6-methyl-5-(2-(2H-1,2,3-triazol-2-yl)benzoyl)-1,2,5-oxadiazepan-2-yl)pyrimidine-4-carbonitrile], the results for the inhibition at 10 µM at human OX1 receptor (setting [1]) and at human OX2 receptor (setting [2]) were 82% and 99%, respectively.

In the case of `Cc1cc(N2CCN(C(=O)c3ccccc3-c3nccs3)CCO2)nc(C)n1` [Example 29, (2-(2,6-dimethyl-pyrimidin-4-yl)-1,2,5-oxadiazepan-5-yl) (2-(1,3-thiazol-2-yl)phenyl) methanone], the inhibition at 10 µM was determined as 88% on human OX1 receptor (setting [1]) and 100% at human OX2 receptor (setting [2]).

For the compound `C[C@@H]1CON(c2ccnc(C3CC3)n2)C[C@H](C)N1C(=O)c1ccccc1-n1nccn1` [Example 175, ((4S,6R)-2-(2-cyclopropylpyrimidin-4-yl)-4,6-dimethyl-1,2,5-oxadiazepan-5-yl) (2-(2H-1,2,3-triazol-2-yl)phenyl)methanone], the inhibition at 10 µM at human OX1 receptor (setting [1]) was 99%; at human OX2 receptor (setting [2]) it was 98%.

For `Cc1cc(C)nc(N2CCN(C(=O)c3ccccc3-c3ccccc3)CCO2)n1` [Example 79, biphenyl-2-yl (2-(4,6-dimethylpyrimidin-2-yl)-1,2,5-oxadiazepan-5-yl)methanone], the inhibition at 10 µM at human OX1 receptor (setting [1]) came to 57%; at human OX2 receptor (setting [2]), 98%.

For the compound `Cc1cc(N2CCN(C(=O)c3cc(F)c(F)cc3-n3nccn3)C[C@H](C)O2)nc(C(F)(F)F)n1` [Example 108, (4,5-difluoro-2-(2H-1,2,3-triazol-2-yl)phenyl)((7S)-7-methyl-2-(6-methyl-2-(trifluoromethyl)pyrimidin-4-yl)-1,2,5-oxadiazepan-5-yl)methanone], the inhibition at 10 µM is 100% at human OX1 receptor (setting [1]) and 101% on human OX2 receptor (setting [2]).

In the case of `C[C@@H]1CON(c2ncc(F)c(O)n2)CCN1C(=O)c1ccccc1-n1nccn1` [Example 149, ((6R)-2-(5-fluoro-4-hydroxypyrimidin-2-yl)-6-methyl-1,2,5-oxadiazepan-5-yl) (2-(2H-1,2,3-triazol-2-yl)phenyl)methanone], the figures for the inhibition at 10 µM on human OX1 receptor (setting [1]) and at human OX2 receptor (setting [2]) were 3% and -6%, respectively.

`Cc1cc(N2CCN(C(=O)c3ccc(Cl)cc3-n3ccnn3)C[C@H](C)O2)nc(C)n1` [Example 211, (4-chloro-2-(1H-1,2,3-triazol-1-yl)phenyl)((7S)-2-(2,6-dimethylpyrimidin-4-yl)-7-methyl-1,2,5-oxadiazepan-5-yl)methanone]: the inhibition at 10 µM at human OX1 receptor (setting [1]) stood at 21%; on human OX2 receptor (setting [2]), 80%.

For the compound `Cc1cc(N2CCN(C(=O)c3ccccc3-n3nccn3)C(C)C(C)O2)nc(C)n1` (stereo not shown) [Example 193, (2-(2,6-dimethylpyrimidin-4-yl)-6,7-dimethyl-1,2,5-oxadiazepan-5-yl)(2-(2H-1,2,3-triazol-2-yl)phenyl)methanone], the “Human Orexin1 receptor inhibition (at 10 μM)” value at human OX1 receptor (setting [1]) was 89%. The “Human Orexin2 receptor inhibition (at 10 μM)” value on human OX2 receptor (setting [2]) was 103%.

Take `COc1c(C#N)cccc1C(=O)N1CCON(c2nc(C)cc(C)n2)CC1` [Example 63, 3-((2-(4,6-dimethylpyrimidin-2-yl)-1,2,5-oxadiazepan-5-yl)carbonyl)-2-methoxybenzonitrile]: the inhibition at 10 µM came out at 11% on human OX1 receptor and 49% at human OX2 receptor.

`Cc1cc(C)nc(N2CCN(C(=O)c3cccc4cccnc34)CCO2)n1` [Example 66, (2-(4,6-dimethylpyrimidin-2-yl)-1,2,5-oxadiazepan-5-yl) (quinolin-8-yl)methanone]: the inhibition at 10 µM was 13% on human OX1 receptor (setting [1]) and 90% at human OX2 receptor (setting [2]).

Consider `Cc1nc(C(F)F)cc(N2CCN(C(=O)c3cc(Cl)ccc3-n3nccn3)C[C@H](C)O2)n1` [Example 103, (5-chloro-2-(2H-1,2,3-triazol-2-yl)phenyl)((7S)-2-(6-(difluoromethyl)-2-methylpyrimidin-4-yl)-7-methyl-1,2,5-oxadiazepan-5-yl)methanone], for which the inhibition at 10 µM was found to be 90% at human OX1 receptor (setting [1]) and 100% on human OX2 receptor (setting [2]).

In the case of `Cc1cc(C)nc(N2CCN(C(=O)c3ccccc3C(F)(F)F)CCO2)n1` [Example 62], the inhibition at 10 µM was 2% at human OX1 receptor (setting [1]) and 72% at human OX2 receptor (setting [2]).

With `Cc1cc(N2CCN(C(=O)c3ccc(Cl)cc3-n3nccn3)CCO2)nc(C)n1` [Example 204, (4-chloro-2-(2H-1,2,3-triazol-2-yl)phenyl)(2-(2,6-dimethylpyrimidin-4-yl)-1,2,5-oxadiazepan-5-yl)methanone], the inhibition at 10 µM at human OX1 receptor (setting [1]) was found to be 70%; at human OX2 receptor (setting [2]) it was 101%.

With `COCC1CN(C(=O)c2ccccc2-n2nccn2)CCN(c2cc(C)nc(C)n2)O1` (stereo not shown) [Example 113, (2-(2,6-dimethylpyrimidin-4-yl)-7-(methoxymethyl)-1,2,5-oxadiazepan-5-yl)(2-(2H-1,2,3-triazol-2-yl)phenyl)methanone], the results for the inhibition at 10 µM at human OX1 receptor (setting [1]) and at human OX2 receptor (setting [2]) were 16% and 102%, respectively.

As to `Cc1cc(N2CCN(C(=O)c3cc(F)c(F)cc3-c3ncc(F)cn3)CCO2)nc(C)n1` [Example 223, (4,5-difluoro-2-(5-fluoropyrimidin-2-yl)phenyl)(2-(2,6-dimethylpyrimidin-4-yl)-1,2,5-oxadiazepan-5-yl)methanone], the inhibition at 10 µM at human OX1 receptor (setting [1]) stood at 17%; at human OX2 receptor (setting [2]) it was 101%.

As for `Cc1cc(N2C[C@H](C)N(C(=O)c3ccccc3-n3nccn3)CC(C)O2)nc(C)n1` (stereo partly drawn) [Example 191, ((4S)-2-(2,6-dimethylpyrimidin-4-yl)-4,7-dimethyl-1,2,5-oxadiazepan-5-yl)(2-(2H-1,2,3-triazol-2-yl)phenyl)methanone], the “Human Orexin1 receptor inhibition (at 10 μM)” value on human OX1 receptor (setting [1]) stood at 106%. At human OX2 receptor (setting [2]), the “Human Orexin2 receptor inhibition (at 10 μM)” value is 109%.

Consider `Cc1ncc(Cl)c(N2CCN(C(=O)c3cc(Cl)ccc3-c3ncccn3)[C@H](C)CO2)n1` [Example 230, ((6R)-2-(5-chloro-2-methylpyrimidin-4-yl)-6-methyl-1,2,5-oxadiazepan-5-yl)(5-chloro-2-(pyrimidin-2-yl)phenyl)methanone], for which the inhibition at 10 µM on human OX1 receptor (setting [1]) is 66%; at human OX2 receptor (setting [2]), 103%.

With `C[C@H]1CN(C(=O)c2ccccc2-n2nccn2)CCN(c2ccc(Cl)cn2)O1` [Example 98, ((7S)-2-(5-chloropyridin-2-yl)-7-methyl-1,2,5-oxadiazepan-5-yl) (2-(2H-1,2,3-triazol-2-yl)phenyl)methanone], the inhibition at 10 µM on human OX1 receptor (setting [1]) amounted to 97%; on human OX2 receptor (setting [2]) it was 104%.

Consider `Cc1cc(C)nc(N2CCN(C(=O)c3cccc4ncccc34)CCO2)n1` [Example 65, (2-(4,6-dimethylpyrimidin-2-yl)-1,2,5-oxadiazepan-5-yl) (quinolin-5-yl)methanone], for which the inhibition at 10 µM stood at 9% on human OX1 receptor and 84% at human OX2 receptor.

For the compound `Cc1nccc(N2C[C@H](C)N(C(=O)c3ccccc3-c3nccs3)[C@H](C)CO2)n1` [Example 184, ((4S,6R)-4,6-dimethyl-2-(2-methylpyrimidin-4-yl)-1,2,5-oxadiazepan-5-yl)(2-(1,3-thiazol-2-yl)phenyl)methanone], the inhibition at 10 µM at human OX1 receptor (setting [1]) came to 100%; on human OX2 receptor (setting [2]), 102%.

Consider `CCc1ccc(-n2nccn2)c(C(=O)N2CCN(c3cc(C)nc(C)n3)O[C@@H](C)C2)c1` [Example 201, ((7S)-2-(2,6-dimethylpyrimidin-4-yl)-7-methyl-1,2,5-oxadiazepan-5-yl)(5-ethyl-2-(2H-1,2,3-triazol-2-yl)phenyl)methanone], for which the inhibition at 10 µM at human OX1 receptor (setting [1]) stood at 60%; at human OX2 receptor (setting [2]), 101%.

Turning to `Cc1ccc(-n2nccn2)c(C(=O)N2CCN(c3nc(C)cc(C)n3)OC[C@H]2C)c1` [Example 114, ((6R)-2-(4,6-dimethylpyrimidin-2-yl)-6-methyl-1,2,5-oxadiazepan-5-yl) (5-methyl-2-(2H-1,2,3-triazol-2-yl)phenyl)methanone], the inhibition at 10 µM came to 69% at human OX1 receptor (setting [1]) and 96% at human OX2 receptor (setting [2]).

As to `Cc1cc(N2CCN(C(=O)c3ccccc3-c3nccs3)[C@@H](C)CO2)nc(C)n1` [Example 171, ((6S)-2-(2,6-dimethylpyrimidin-4-yl)-6-methyl-1,2,5-oxadiazepan-5-yl)(2-(1,3-thiazol-2-yl)phenyl)methanone], the inhibition at 10 µM worked out at 37% at human OX1 receptor (setting [1]) and 102% on human OX2 receptor (setting [2]).

The inhibition is the change of the read-out against control, counted positive when it falls.
